Key:
[1] = target: T1, Aldehyde dehydrogenase, dimeric NADP-preferring (Homo sapiens, UniProt P30838); assay: Inhibition of full length recombinant human ALDH3A1 expressed in Escherichia coli BL21(DE3) assessed as reduction in dehydrogenase activity by measuring NAD(P)H level preincubated for 2 mins followed by addition of benzaldehyde as substrate in presence of NADP+ by spectrophotometric method
T1 sequence (P30838 whole entry): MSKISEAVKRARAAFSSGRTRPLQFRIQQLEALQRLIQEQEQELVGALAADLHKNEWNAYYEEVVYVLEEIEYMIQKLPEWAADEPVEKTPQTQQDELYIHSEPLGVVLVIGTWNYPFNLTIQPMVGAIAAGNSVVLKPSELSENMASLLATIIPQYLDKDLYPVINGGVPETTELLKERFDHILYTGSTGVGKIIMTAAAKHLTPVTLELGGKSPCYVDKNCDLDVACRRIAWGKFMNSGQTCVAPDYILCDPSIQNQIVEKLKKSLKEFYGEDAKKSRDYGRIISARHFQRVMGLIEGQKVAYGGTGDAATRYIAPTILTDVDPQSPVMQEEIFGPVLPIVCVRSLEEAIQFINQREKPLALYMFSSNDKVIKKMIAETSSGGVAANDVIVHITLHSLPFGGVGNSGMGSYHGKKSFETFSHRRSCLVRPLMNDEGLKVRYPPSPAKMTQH

[2] = target: T2, Aldehyde dehydrogenase X, mitochondrial (Homo sapiens, UniProt P30837)
T2 sequence (P30837 whole entry): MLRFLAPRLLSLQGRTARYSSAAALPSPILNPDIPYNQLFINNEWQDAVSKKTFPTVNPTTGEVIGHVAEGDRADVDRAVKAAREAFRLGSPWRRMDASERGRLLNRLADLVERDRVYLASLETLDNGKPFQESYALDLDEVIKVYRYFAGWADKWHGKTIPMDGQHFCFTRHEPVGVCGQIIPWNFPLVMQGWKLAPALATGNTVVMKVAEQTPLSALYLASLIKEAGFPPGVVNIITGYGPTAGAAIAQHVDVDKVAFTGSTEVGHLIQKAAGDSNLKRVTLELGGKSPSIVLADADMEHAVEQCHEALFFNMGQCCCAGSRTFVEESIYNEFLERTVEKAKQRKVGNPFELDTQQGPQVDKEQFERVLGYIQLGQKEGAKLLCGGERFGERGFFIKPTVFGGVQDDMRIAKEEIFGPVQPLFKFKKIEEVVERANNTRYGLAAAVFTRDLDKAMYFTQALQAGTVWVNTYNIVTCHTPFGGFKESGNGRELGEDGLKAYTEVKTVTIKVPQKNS
Description: Inhibition of full length recombinant human ALDH1B1 expressed in Escherichia coli TunerDE3 assessed as reduction in dehydrogenase activity by measuring NAD(P)H level preincubated for 2 mins followed by addition of propionaldehyde as substrate in presence of NAD+ by spectrophotometric method

[3] = target: T3, Aldehyde dehydrogenase, mitochondrial (Homo sapiens) (UniProt P05091); assay: Inhibition of full length recombinant human ALDH2 expressed in Escherichia coli assessed as remaining dehydrogenase activity by measuring NAD(P)H level at 10 uM preincubated for 2 mins followed by addition of propionaldehyde as substrate in presence of NAD+ by spectrophotometric method
T3 sequence (whole entry): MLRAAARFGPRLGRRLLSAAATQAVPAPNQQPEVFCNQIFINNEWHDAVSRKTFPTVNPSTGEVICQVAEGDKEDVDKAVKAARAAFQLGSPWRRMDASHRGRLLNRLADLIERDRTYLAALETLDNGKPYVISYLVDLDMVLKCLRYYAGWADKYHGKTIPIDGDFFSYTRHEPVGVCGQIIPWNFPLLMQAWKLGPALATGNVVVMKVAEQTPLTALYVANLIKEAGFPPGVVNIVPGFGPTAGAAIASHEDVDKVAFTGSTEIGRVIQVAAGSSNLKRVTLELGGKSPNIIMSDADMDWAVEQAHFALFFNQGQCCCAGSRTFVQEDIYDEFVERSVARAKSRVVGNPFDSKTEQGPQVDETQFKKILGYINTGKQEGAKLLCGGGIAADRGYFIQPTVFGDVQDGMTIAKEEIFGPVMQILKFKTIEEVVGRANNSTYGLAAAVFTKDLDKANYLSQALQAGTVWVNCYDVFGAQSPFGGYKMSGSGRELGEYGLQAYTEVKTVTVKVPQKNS

[4] = target: T4, Aldehyde dehydrogenase, mitochondrial (Homo sapiens, UniProt P05091)
T4 sequence (P05091 whole entry): T3 sequence (whole entry)
Description: Inhibition of full length recombinant human ALDH2 expressed in Escherichia coli assessed as reduction in dehydrogenase activity by measuring NAD(P)H level preincubated for 2 mins followed by addition of propionaldehyde as substrate in presence of NAD+ by spectrophotometric method

[5] = Lipophilicity, log P of the compound; format: physicochemical; conditions: octanol/water
[6] = target: T5, Aldehyde dehydrogenase 1A1 (Homo sapiens) (UniProt P00352); assay: Inhibition of full length recombinant human ALDH1A1 expressed in Escherichia coli BL21(DE3) assessed as remaining dehydrogenase activity by measuring NAD(P)H level at 10 uM preincubated for 2 mins followed by addition of propionaldehyde as substrate in presence of NAD+ by spectrophotometric method
T5 sequence (whole entry): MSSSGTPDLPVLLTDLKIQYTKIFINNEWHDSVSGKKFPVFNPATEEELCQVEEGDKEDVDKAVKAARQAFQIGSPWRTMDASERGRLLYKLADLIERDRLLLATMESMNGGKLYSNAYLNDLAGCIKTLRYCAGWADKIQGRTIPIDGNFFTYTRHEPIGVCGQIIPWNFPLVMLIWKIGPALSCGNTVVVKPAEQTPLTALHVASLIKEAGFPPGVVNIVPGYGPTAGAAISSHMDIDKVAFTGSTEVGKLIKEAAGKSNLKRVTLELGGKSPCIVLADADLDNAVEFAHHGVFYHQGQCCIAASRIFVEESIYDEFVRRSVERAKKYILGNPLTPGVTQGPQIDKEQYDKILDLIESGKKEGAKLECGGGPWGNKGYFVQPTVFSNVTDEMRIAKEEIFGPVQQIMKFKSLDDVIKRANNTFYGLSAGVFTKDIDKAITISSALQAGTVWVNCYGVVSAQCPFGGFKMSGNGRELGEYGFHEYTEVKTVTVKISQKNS

[7] = target: T6, Aldehyde dehydrogenase, dimeric NADP-preferring (Homo sapiens) (UniProt P30838); assay: Inhibition of full length recombinant human ALDH3A1 expressed in Escherichia coli BL21(DE3) assessed as remaining dehydrogenase activity by measuring NAD(P)H level at 10 uM preincubated for 2 mins followed by addition of propionaldehyde as substrate in presence of NAD+ by spectrophotometric method
T6 sequence (whole entry): T1 sequence (P30838 whole entry)

| SMILES | IC50 [1] | IC50 [2] | Activity [3] | IC50 [4] | logP [5] | Activity [6] | Activity [7] |
| --- | --- | --- | --- | --- | --- | --- | --- |
| CCCc1cc(=O)oc2cc3oc(C)c(C)c3cc12 | Not Active | 86 nM | 23.8% | 360 nM | 4.47 | 74.1% | 80.4% |
| CCCc1c(C)c2cc3c(C)c(C)oc3cc2oc1=O | Not Active | 360 nM | 1.61% | 110 nM | 4.92 | 36.3% | 86.3% |
| C/C(=N\O)c1cc2cc(Br)ccc2oc1=O | Not Active |  | 48.2% | 4600 nM | 2.1 | 96% | 91.7% |
| COC(=O)C(C)Oc1ccc2c(C)cc(=O)oc2c1 (configuration not stated) | Not Active |  | 5.72% | 1500 nM | 1.9 | 84.8% |  |
| Cc1oc2cc3oc(=O)c(C)c(C)c3cc2c1C | Not Active | 310 nM | 19.5% |  | 4.39 | 90.5% | 95.3% |
| CCCc1c(C)c2cc3c(C)coc3cc2oc1=O | Not Active | 880 nM | 6.25% | 340 nM | 4.47 | 48.6% | 96.1% |
| Cc1oc2cc3oc(=O)c4c(c3cc2c1C)CCC4 | Not Active | 160 nM | 8.25% | 67 nM | 4.26 | 50.8% | 87.1% |
| Cc1oc2cc3oc(=O)c(CCC(=O)N4CCCCC4)c(C)c3cc2c1C | Not Active | 2600 nM | 3.8% | 2000 nM | 4.06 | 8.69% | 105% |
